Data published in publication PMC9610702, “Synthesis, Characterization, and Biological Evaluation of Tetrahydropyrimidines: Dual-Activity and Mechanism of Action” (Pharmaceutics, 2022).
≈ marks a conversion by molar mass, not a printed value. Where two headings read alike, the source gives them in different places.

How the values were obtained:
Penicillium italicum = assay: antifungal MIC, broth tube dilution; assay type: cell-based
From the text: (§1) In this paper, the synthesis, characterization, and biological evaluation of the novel tetrahydropyrimidines—THPMs are described. THPMs are well-known for wide pharmacological activities such as antimicrobial, anticancer, antiviral, etc. This research includes obtained results of in vitro antimicrobial, anticancer, and α-glucosidase inhibitory activities of the eleven novel THPMs. An antibiotic assessment was done against five bacteria (two Gram-positive and three Gram-negative) and five fungi by determining the minimal inhibitory concentration (MIC), using the broth tube dilution method. […] The cytotoxic activity was performed on the tumor cell lines (HeLa, K562, and MDA-MB-231) and normal cells (MRC-5). The best antitumor activity was shown by compounds 4b and 4k against HeLa cell lines.
(§2) All materials and methods used for biological examination (antibacterial, antifungal, anticancer, and α-glucosidase inhibitory activities) and crystal structure determination are presented in the Supplementary Materials, File S1.

Aspergillus niger = assay: antifungal MIC, broth tube dilution; assay type: cell-based
From the text: as §1, §2

Aspergillus flavus = assay: antifungal MIC, broth tube dilution; assay type: cell-based
From the text: as §1, §2

[1] = test system: Trichophyton mentagrophytes; assay: antifungal MIC, broth tube dilution; assay type: cell-based
From the text: as §1, §2

Mucor mucedo = assay: antifungal MIC, broth tube dilution; assay type: cell-based
From the text: as §1, §2

[2] = test system: normal human lung fibroblasts MRC-5; assay: cytotoxic activity on normal cells; assay type: cell-based; settings: MRC5, MRC-5 normal fibroblasts, three independent experiments in triplicate, read-out: IC50 Average ± SD
From the text: as §2
The cytotoxic activity of eleven novel compounds was examined against HeLa, K562, MDA-MB-231, and MRC-5.
The cytotoxic activity was examined against HeLa, K562, MDA-MB-231 cells, and normal human lung fibroblasts MRC-5. […] In addition, the effects of the 4k and 4b on the cell cycle were examined.

K562 cells = assay: cytotoxic activity; assay type: cell-based; settings: for IC50: K562, three independent experiments in triplicate, read-out: IC50 Average ± SD
From the text: (§3) All materials and methods used for biological examination (antibacterial, antifungal, anticancer, and α-glucosidase inhibitory activities) and crystal structure determination are presented in the Supplementary Materials, File S1. The cytotoxic activity of eleven novel compounds was examined against HeLa, K562, MDA-MB-231, and MRC-5. The tested compounds exerted concentration-dependent cytotoxic effects on cell lines. […] Compared to compound 4j, 4k has a methyl group in para position of benzoyl fragment; so, probably this structural difference is responsible for better activity and selectivity of compound 4k on HeLa (43.63 ± 1.49 µM) and K562 (39.11 ± 2.90 µM).

HeLa cells [3] = assay: cytotoxic activity; assay type: cell-based; settings: for IC50 Average ± SD / IC50: HeLa, three independent experiments in triplicate; for IC50: read-out: IC50 Average ± SD; for selectivity coefficient: HeLa compared with MRC-5 cells
From the text: as §3

MDA-MB-231 cells = assay: cytotoxic activity; assay type: cell-based; settings: three independent experiments in triplicate, read-out: IC50 Average ± SD
From the text: as §3

α-glucosidase = α-glucosidase inhibitory activity; assay type: biochemical; settings: average ± SD of two experiments
From the text: as §2

Escherichia coli = assay: antibacterial MIC, broth tube dilution; assay type: cell-based
From the text: as §1, §2

Klebsiella oxytoca = assay: antibacterial MIC, broth tube dilution; assay type: cell-based
From the text: as §1, §2

Staphylococcus aureus = assay: antibacterial MIC, broth tube dilution; assay type: cell-based
From the text: as §1, §2

Bacillus subtilis = assay: antibacterial MIC, broth tube dilution; assay type: cell-based
From the text: as §1, §2

Proteus mirabilis = assay: antibacterial MIC, broth tube dilution; assay type: cell-based; settings: ND = not detected
From the text: as §1, §2

HeLa cells [4] = assay: cell-cycle phase distribution; assay type: cell-based; settings: 24 h, IC50 and 2IC50 concentrations, vs untreated control
From the text: as §2
The observed changes in the amounts of treated cells within subG1 and G1 phases of the cell cycle were accompanied with decreased percentages of cells within the S and G2/M phases.
The data shown represent the average ± standard deviation of two independent experiments.

HeLa cells [5] = assay: morphological evaluation of cell death mode, acridine orange/ethidium bromide staining; assay type: cell-based; settings: 24 h, 2IC50 concentration
Description: as §2
The photomicrographs of control HeLa cells and HeLa cells incubated for 24 h with 2IC50 concentrations of the compounds 4b and 4k and stained with a mixture of acridine orange/ethidium bromide are presented in Figure 5. […] Orange-red-stained shrunken cells with condensed chromatin in later stages of apoptosis were detected as well. […] The proapoptotic effect of compound 4b was to some extent stronger when comparing with effect of compound 4k.
Figure 5 Photomicrographs of acridine orange/ethidium bromide-stained control HeLa cells and HeLa cells incubated with 2IC50 concentrations of compounds 4b and 4k during 24 h (magnification 20×). Representative photomicrographs are shown.

MIC (Penicillium italicum) [µg/mL]	MIC (Aspergillus niger) [µg/mL]	MIC (Aspergillus flavus) [µg/mL]	MIC [1] [µg/mL]	MIC (Mucor mucedo) [µg/mL]	IC50 (α-glucosidase) [µM]	MIC (Escherichia coli) [µg/mL]	MIC (Klebsiella oxytoca) [µg/mL]	MIC (Staphylococcus aureus) [µg/mL]	MIC (Bacillus subtilis) [µg/mL]	MIC (Proteus mirabilis; read-out: MIC) [µg/mL]	Structure (SMILES)	IC50 [2] [µM]	IC50 (K562 cells; Homo sapiens) [µM]	IC50 (HeLa cells [3]; Homo sapiens) [µM]	IC50 (MDA-MB-231 cells; Homo sapiens) [µM]	further results
1000 (≈ 3.27 mM)	500 (≈ 1.63 mM)	1000 (≈ 3.27 mM)	250 (≈ 0.816 mM)	1000 (≈ 3.27 mM)							OC(Cn1cncn1)(Cn1cncn1)c1ccc(F)cc1F [Fluconazole, reference compound]					
1620 (≈ 3.96 mM)	1620 (≈ 3.96 mM)	1620 (≈ 3.96 mM)	400 (≈ 0.977 mM)	1620 (≈ 3.96 mM)	1120 ± 20.6	1620 (≈ 3.96 mM)	1620 (≈ 3.96 mM)	810 (≈ 1.98 mM)	3250 (≈ 7.94 mM)	810 (≈ 1.98 mM)	COC(=O)C1=C(C)N(C)C(=S)NC1c1cc(OC)c(OC(C)=O)c([N+](=O)[O-])c1 (stereo not drawn) [4d]	193 ± 10.3	165 ± 8.5	> 200	> 200	IC50 Average ± SD (HeLa cells [3]): very low cytotoxicity
											N.N.[Cl][Pt][Cl] [cisPt, reference compound]					IC50 (K562 cells): 6.89 ± 0.21 µM; IC50 (HeLa cells [3]): 4.91 ± 0.74 µM; IC50 (MDA-MB-231 cells): 14.7 ± 0.36 µM
1620 (≈ 4.15 mM)	810 (≈ 2.07 mM)	1620 (≈ 4.15 mM)	200 (≈ 0.512 mM)	1620 (≈ 4.15 mM)	767.9 ± 5.91	3250 (≈ 8.32 mM)	3250 (≈ 8.32 mM)	3250 (≈ 8.32 mM)	3250 (≈ 8.32 mM)	1620 (≈ 4.15 mM)	COC(=O)C1=C(C)N(C)C(=S)NC1c1ccc(OC(=O)C2CC2)c(OC)c1 (stereo not drawn) [4f]	196 ± 5.54	123 ± 8.52	135 ± 9.32	161 ± 9.69	
1620 (≈ 3.68 mM)	1620 (≈ 3.68 mM)	810 (≈ 1.84 mM)	200 (≈ 0.454 mM)	1620 (≈ 3.68 mM)	1080 ± 54.5	3250 (≈ 7.38 mM)	3250 (≈ 7.38 mM)	3250 (≈ 7.38 mM)	3250 (≈ 7.38 mM)	3250 (≈ 7.38 mM)	COC(=O)C1=C(C)N(C)C(=S)NC1c1ccc(OC(=O)c2ccc(C)cc2)c(OC)c1 (stereo not drawn) [4k]	87.2 ± 7.31	39.1 ± 2.9	43.6	74.1 ± 1.25	selectivity coefficient (K562 cells; K562 compared with MRC-5 cells): 2.23; selectivity coefficient (HeLa cells [3]): 2; percentage of HeLa cells in the G1 phase (HeLa cells [4]): pronounced increase; percentage of dead cells within subG1 phase (HeLa cells [4]): increase; percentages of cells within the S and G2/M phases (HeLa cells [4]): decreased; cell death mode (apoptosis) (HeLa cells [5]): activate apoptosis
1620 (≈ 4.41 mM)	810 (≈ 2.2 mM)	400 (≈ 1.09 mM)	400 (≈ 1.09 mM)	1620 (≈ 4.41 mM)		1620 (≈ 4.41 mM)	1620 (≈ 4.41 mM)	1620 (≈ 4.41 mM)	3250 (≈ 8.85 mM)	1620 (≈ 4.41 mM)	COC(=O)C1=C(C)N(C)C(=S)NC1c1cc(OC)c(O)c([N+](=O)[O-])c1 (stereo not drawn) [4c]	196 ± 5.89	180 ± 9.15	> 200	> 200	IC50 Average ± SD (HeLa cells [3]): very low cytotoxicity
1620 (≈ 4.28 mM)	1620 (≈ 4.28 mM)	1620 (≈ 4.28 mM)	200 (≈ 0.528 mM)	1620 (≈ 4.28 mM)	674.8 ± 5.65	1620 (≈ 4.28 mM)	3250 (≈ 8.59 mM)	3250 (≈ 8.59 mM)	3250 (≈ 8.59 mM)		CCC(=O)Oc1ccc(C2NC(=S)N(C)C(C)=C2C(=O)OC)cc1OC (stereo not drawn) [4e]	128 ± 3.2	149 ± 5.74	197 ± 3.93	> 200	MIC (Proteus mirabilis): no inhibitory effect
1620 (≈ 4.04 mM)	1620 (≈ 4.04 mM)	1620 (≈ 4.04 mM)	400 (≈ 0.997 mM)	1620 (≈ 4.04 mM)	313 ± 7.73	1620 (≈ 4.04 mM)	1620 (≈ 4.04 mM)	1620 (≈ 4.04 mM)	3250 (≈ 8.1 mM)	810 (≈ 2.02 mM)	COC(=O)C1=C(C)N(C)C(=S)NC1c1cc(Br)c(O)c(OC)c1 (stereo not drawn) [4a]	187 ± 4.66	79 ± 7.49	97.4 ± 5.4	144 ± 8.29	
1620 (≈ 4.45 mM)	1620 (≈ 4.45 mM)	1620 (≈ 4.45 mM)	400 (≈ 1.1 mM)	1620 (≈ 4.45 mM)	192 ± 5.95	1620 (≈ 4.45 mM)	1620 (≈ 4.45 mM)	3250 (≈ 8.92 mM)	3250 (≈ 8.92 mM)	810 (≈ 2.22 mM)	COC(=O)C1=C(C)N(C)C(=S)NC1c1ccc(OC(C)=O)c(OC)c1 (stereo not drawn) [4g]	193 ± 9.59	153 ± 2.58	197 ± 3.55	> 200	
						62 (≈ 0.107 mM)	8 (≈ 0.0138 mM)	31 (≈ 0.0533 mM)	16 (≈ 0.0275 mM)	62 (≈ 0.107 mM)	[H]/N=C(/N)N[C@H]1[C@H](O)[C@@H](O)[C@H](O[C@@H]2O[C@@H](C)[C@](O)(C=O)[C@H]2O[C@@H]2O[C@@H](CO)[C@H](O)[C@@H](O)[C@@H]2NC)[C@@H](N/C(N)=N\[H])[C@@H]1O [Streptomycin, reference compound]					
1620 (≈ 4.28 mM)	1620 (≈ 4.28 mM)	1620 (≈ 4.28 mM)	810 (≈ 2.14 mM)	1620 (≈ 4.28 mM)	933 ± 25.2	3250 (≈ 8.59 mM)	3250 (≈ 8.59 mM)	3250 (≈ 8.59 mM)	3250 (≈ 8.59 mM)	3250 (≈ 8.59 mM)	CCOc1cccc(C2NC(=S)N(C)C(C)=C2C(=O)OC)c1OC(C)=O (stereo not drawn) [4h]	77.8 ± 2.57	79.9 ± 6.73	121 ± 9.96	114 ± 12.9	
1620 (≈ 3.8 mM)	1620 (≈ 3.8 mM)	1620 (≈ 3.8 mM)	400 (≈ 0.938 mM)	1620 (≈ 3.8 mM)		3250 (≈ 7.62 mM)	3250 (≈ 7.62 mM)	3250 (≈ 7.62 mM)	3250 (≈ 7.62 mM)	1620 (≈ 3.8 mM)	COC(=O)C1=C(C)N(C)C(=S)NC1c1ccc(OC(=O)c2ccccc2)c(OC)c1 (stereo not drawn) [4j, methyl 4-(4′-benzoyloxy-3′-methoxyphenyl)-1,2,3,4-tetrahydro-1,6-dimethyl-2-thioxopyrimidine-5-carboxylate]	104 ± 8.61	68 ± 6.53	78.1 ± 5.78	123 ± 2.19	
1620 (≈ 3.61 mM)	810 (≈ 1.81 mM)	1620 (≈ 3.61 mM)	400 (≈ 0.892 mM)	1620 (≈ 3.61 mM)	292 ± 6.67	1620 (≈ 3.61 mM)	1620 (≈ 3.61 mM)	1620 (≈ 3.61 mM)	3250 (≈ 7.25 mM)	810 (≈ 1.81 mM)	COC(=O)C1=C(C)N(C)C(=S)NC1c1cc(I)c(O)c(OC)c1 (stereo not drawn) [4b]	112 ± 10.8	76.8 ± 5.01	52.6 ± 4.45	116 ± 8.71	selectivity coefficient (HeLa cells [3]): 2.13; percentage of HeLa cells in the G1 phase (HeLa cells [4]): pronounced increase; percentage of dead cells within subG1 phase (HeLa cells [4]): increase; percentages of cells within the S and G2/M phases (HeLa cells [4]): decreased; cell death mode (apoptosis) (HeLa cells [5]): induce apoptotic cell death
